Assay results from ChEMBL document CHEMBL5233205, “VISTA inhibitors in cancer immunotherapy: a short perspective on recent progresses” (RSC Med Chem, 2021).
One block for each compound: values may come before it. Positions of bridges follow the written chain, without caps; N, C: chain ends. Non-standard residues stand in square brackets, D forms with d. Residues, ends and D or L forms follow the SMILES beside them. *: point of attachment. X1 = N[C@@H](CO)C(=O)N[C@@H](Cc1ccccc1)C(=O)NCCCCN*; NMeT = CN[C@H](C(=O)O)[C@@H](C)O

Assays:
Splenocyte [1] = test: Cytoprotective activity against anti-CD3/CD28 stimulated mouse splenocyte assessed as rescue of cell proliferation at 100 nM incubated for 72 hrs by CFSE staining based flow cytometric analysis; assay type: functional
[2] = target: T1, V-type immunoglobulin domain-containing suppressor of T-cell activation (Homo sapiens, UniProt Q9H7M9); test: Binding affinity to recombinant human His-tagged VISTA ECD incubated for 2 hrs by TR-FRET assay
T1 sequence (Q9H7M9 whole entry): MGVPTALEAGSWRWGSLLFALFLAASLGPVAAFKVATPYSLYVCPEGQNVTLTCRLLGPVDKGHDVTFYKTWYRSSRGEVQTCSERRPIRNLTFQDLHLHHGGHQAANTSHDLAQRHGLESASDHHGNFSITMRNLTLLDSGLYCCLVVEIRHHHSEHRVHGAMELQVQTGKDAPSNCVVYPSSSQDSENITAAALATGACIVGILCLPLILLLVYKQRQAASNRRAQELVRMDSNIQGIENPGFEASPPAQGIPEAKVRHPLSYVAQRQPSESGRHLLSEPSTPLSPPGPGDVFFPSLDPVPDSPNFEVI

[3] = target: T1, V-type immunoglobulin domain-containing suppressor of T-cell activation; test: Binding affinity to recombinant human VISTA ECD incubated for 2 hrs by ELISA assay
Splenocyte [4] = test: Cytoprotective activity against anti-CD3/CD28 stimulated mouse splenocyte co-cultured with MDA-MB-231 cells overexpressing PD-L1 assessed as rescue of cell proliferation at 100 nM incubated for 72 hrs by CFSE staining based flow cytometric analysis relative to control; assay type: functional
[5] = target: Programmed cell death 1 ligand 1 (Homo sapiens, UniProt Q9NZQ7); test: Inhibition of His-tagged human recombinant PD-L1 incubated for 15 mins by LANCE Ultra TR-FRET assay
Chain of Programmed cell death 1 ligand 1 (Q9NZQ7 whole entry, the tested form may be a part): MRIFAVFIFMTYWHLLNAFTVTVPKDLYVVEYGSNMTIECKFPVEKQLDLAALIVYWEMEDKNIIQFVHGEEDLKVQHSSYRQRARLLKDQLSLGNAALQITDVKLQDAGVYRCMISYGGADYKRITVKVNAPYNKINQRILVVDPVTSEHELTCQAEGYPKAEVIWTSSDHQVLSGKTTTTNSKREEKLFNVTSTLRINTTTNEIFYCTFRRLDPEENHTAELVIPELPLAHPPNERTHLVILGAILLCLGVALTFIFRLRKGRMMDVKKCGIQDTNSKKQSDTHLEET

[6] = target: T1, V-type immunoglobulin domain-containing suppressor of T-cell activation; test: Inhibition of VISTA (unknown origin) incubated for 15 mins by LANCE Ultra TR-FRET assay
Splenocyte [7] = test: Cytoprotective activity against anti-CD3/CD28 stimulated mouse splenocyte assessed as rescue of PD-L1 stimulated inhibition of proliferation at 100 nM incubated for 72 hrs by CFSE staining based flow cytometric analysis; design: scale not given: the % may be the effect or the level left
[8] = Half life in mouse liver microsomes at 1 uM by LC-MS/MS analysis; assay type: ADME, Microsome
B16-F10 = test: Antimetastatic activity against mouse B16-F10 cells implanted in C57BL/6 mouse assessed as decrease in lung metastasis at 5 mg/kg,sc and measured after 14 days; assay type: functional; design: scale not given: the % may be the effect or the level left; conditions: time 14 day

Structure (SMILES): NCCCC[C@H](NC(=O)N[C@@H](CC(N)=O)C(=O)NNC(=O)[C@@H](N)CO)C(=O)O
Activity (Splenocyte [1]): 87%

IC50 [2]: 4.8 µM
IC50 [3]: 9.7 µM
Structure (SMILES): CN(C)c1n/c(=N\Cc2ccco2)ss1

EC50 [6]: 0.0829 µM
Structure (SMILES): C[C@H](O)[C@H](NC(=O)N[C@@H](CC(N)=O)c1nc([C@@H](N)CO)no1)C(=O)O
Activity (Splenocyte [4]): 89%
EC50 [5]: 0.0661 µM
Activity (Splenocyte [1]): 97%
Activity (Splenocyte [7]): >70%

half-life at 1 µM [8]: > 1.5 h
Structure (SMILES): CC[C@H](C)[C@H](NC(=O)[C@H](CCC(N)=O)NC(=O)[C@H](C)NC(=O)[C@H](CCCCN)NC(=O)[C@@H]1CCCN1C(=O)[C@H](C)NC(=O)[C@H](CC(C)C)NC(=O)[C@H](CCC(N)=O)NC(=O)[C@@H](NC(=O)[C@@H](NC(=O)[C@H](CCCNC(=N)N)NC(=O)[C@H](Cc1ccccc1)NC(=O)[C@H](CCCCN[C@@H](Cc1ccccc1)C(=O)N[C@@H](CO)C(=O)N[C@@H](CCC(=O)O)C(=O)N[C@@H](CO)C(=O)N[C@H](C(=O)N[C@@H](CC(N)=O)C(=O)N[C@@H](CO)C(=O)O)[C@@H](C)O)NC(=O)[C@H](Cc1ccccc1)NC(=O)[C@H](CO)NC(=O)[C@H](CCC(=O)O)NC(=O)[C@H](CO)NC(=O)[C@@H](NC(=O)[C@H](CC(N)=O)NC(=O)[C@@H](N)CO)[C@@H](C)O)C(C)C)[C@@H](C)O)C(=O)N[C@@H](CCCCN)C(=O)N[C@@H](CCC(=O)O)C(=O)O

Structure (SMILES): C[C@H](O)[C@@H]1NC(=O)N[C@@H](CC(N)=O)C(=O)NNC(=O)[C@H](CO)NC(=O)COCCOCCNC1=O
Activity (Splenocyte [1]): 87%

Structure (SMILES): C[C@H](O)[C@H](NC(=O)N[C@@H](CC(N)=O)c1nc([C@@H](N)CCCCN)no1)C(=O)O
Activity (Splenocyte [1]): 50%
Activity (Splenocyte [7]): 96%

Structure (SMILES): CCCNC(=O)CC[C@H](NC(=O)N[C@H](C(=O)O)[C@H](C)O)c1nc([C@@H](N)CO)no1
Activity (Splenocyte [1]): <50%
Activity (Splenocyte [7]): 119%

Structure (SMILES): C[C@H](O)[C@H](NC(=O)N[C@@H](CC(N)=O)c1nc(C2(N)CCCCC2)no1)C(=O)O
Activity (Splenocyte [1]): 86%

Structure (SMILES): C[C@@H](O)[C@H]1C(=O)N[C@@H](CO)C(=O)N[C@H](C(=O)N[C@@H](CO)C(=O)N[C@@H](Cc2ccccc2)C(N)=O)CCCCNC(=O)CC[C@H](NC(=O)[C@@H](N)CO)C(=O)N1C (H-SE[NMeT]SKSF-NH2; lactam 2-5)
Activity (Splenocyte [1]): 82%

Structure (SMILES): C[C@@H](O)[C@@H]1NC(=O)[C@@H](NC(=O)[C@@H](N)CO)CCCCNC(=O)CC[C@@H](C(=O)N[C@@H](CO)C(=O)N[C@@H](Cc2ccccc2)C(N)=O)NC(=O)[C@H](CO)NC1=O (H-SKTSESF-NH2; lactam 2-5)
Activity (Splenocyte [4]): 60%

Structure (SMILES): C[C@@H](O)[C@H](NC(=O)[C@H](CCC(N)=O)NC(=O)[C@@H](N)CO)C(=O)N[C@@H](CO)C(=O)N[C@@H](CCC(=O)NCCCCNC(=O)[C@H](Cc1ccccc1)NC(=O)[C@@H](N)CO)C(N)=O (H-SQTSE(X1)-NH2)
Activity (B16-F10): 64%
